Laboratory results taken from US20240067931A1, “METHODS AND COMPOSITIONS FOR SMALL MOLECULE BASED PANCREATIC BETA CELL INDUCTION” (Trailhead Biosystems Inc., priority 2022, published 2024).
Ends that are not written are not given here.

Tests used:
Assay type in all cases: cell-based, human
HNF1b = experiment: HD-DoE perturbation matrix on iPSC line CR01, optimization of HNF1b activation (MODDE modelling)
Excerpt: (§1) FIG. 2 Optimization of HNF1B from the iPSC-line CR01. A culture of the iPSC cell line Cr01 was exposed to an HD-DoE perturbation matrix composed of compounds regulating the BMP, retinoid, TGF-β and FGF pathways. Pathways previously shown to be involved in the differentiation of dorsal foregut endoderm were utilized in this analysis. MODDE software was used to predict the optimal condition for maximizing HNF1b activation. Predicted factor additives for this optimization and the relative expression under these conditions for the genes measured are shown.
(§2) To assay the efficacy of a potentially clinical grade iPSC line the NCRM1 cell line was chosen. An HD-DoE based optimization was used to validate the HNF1b and FOXA2 optimizers for this cell line. The HD-DOE method was applied with the intent to find conditions for induction of endoderm-expressed genes, directly from the pluripotent stem cell state. This example utilizes a method previously described by Bukys et al. (2020) Iscience 23:101346. The method employs computerized design geometries to simultaneously test multiple process inputs and offers mathematical modeling of a deep effector/response space. The method allows for finding combinatorial signaling inputs that control a complex process, such as dauring cell differentiation. It allows testing of multiple plausible critical process parameters, as such parameters impact output responses, such as gene expression. Because gene expression provides hallmark features of the phenotype of, for example, a human cell, the method can be applied to identify, and understand, which signaling pathways control cell fate.
(§3) To develop a cell culture recipe for each stage, the impact of agonists and antagonists of multiple signaling pathways (herein called effectors) on the expression of pre-selected genes was tested and modeled. The impact of each effector on gene expression level is defined by a parameter called factor contribution that is calculated for each effector during the modeling. These effectors are small molecules or proteins that are commonly used during stepwise differentiation of stem cells to specific fates. Choice of the effectors were based on current literature on differentiation of stem cells to endoderm progenitors.
(§4) In both optimizations, it was shown that BMP pathway inhibition was the most crucial component of the optimization with factor contribution factors of 31.26 and 31.11 for LDN193189 in both the optimization of HNF1b (FIG. 2) and FOXA2 (FIG. 3), respectively. While MEK pathway inhibition with PD0325901 was critical for both HNF1b and FOXA2 optimization (factor contributions of 15.01 and 29.01, respectively), FOXA2 activation was more dependent on MEK inhibition. The other two pathways that were determined to be crucial for controlling DFE activation were retinoid signaling and TGF-β pathway inhibition. These two pathways had differential effects on FOXA2 and HNF1b.

FOXA2 [1] = experiment: HD-DoE perturbation matrix on iPSC line CR01, optimization of FOXA2 activation (MODDE modelling)
Excerpt: as §1, with “FIG. 3” for “FIG. 2”, “of FOXA2” for “of HNF1B”, “foregut endoderm.” for “foregut endoderm were utilized in this analysis.”, “maximizing FOXA2” for “maximizing HNF1b”, “for all” for “for the”
as §2, §3, §4

FOXA2 [2] = experiment: Immunohistochemical staining of iPSC (CR01) cultures after three days in additive combinations; conditions: added to RA and LDN, FIG. 9
Excerpt: FIG. 9 Achieving optimal FOXA2 expression. IPSC (CR01) cultures were exposed to media containing different combination of the additive retinoic acid, LDN193189, A8301 and/or PD0325 as indicated on the left side of the stainings. After three days, cultures were fixed and subjected to immunohistochemical staining for the protein antigens of FOXA2 and HNF1b.

INS = experiment: HD-DoE screening for optimal de novo beta cell induction (stage 3 cultures, 3 day perturbation), INS induction
Method: FIG. 18 HD-DoE screening for optimal de novo beta cell induction. Culture of the iPSC cell line CR01 were differentiated to a DFE state for 3 days. These cultures were then incubated in the presence of stage 2 media for an additional 3 days. These cultures were then incubated for an additional 5 days in the presence of GSI-XX and A8301 followed by a 3 day incubation in the presence of a perturbation matrix composed of the compounds indicated in the different panels. This was performed 3 separate times (once for each of the 3 panels). These HD-DoE experiments were then analyzed using MODDE software for maximal induction of insulin. The predicted results are shown.
FIG. 20 HD-DoE screening for optimal de novo beta cell induction. Cultures of the iPSC cell line CR01 were differentiated to a DFE state for 3 days. These cultures were then incubated in the presence of stage 2 media for an additional 3 days. These cultures were then incubated for an additional 5 days in the presence of GSI-XX and A8301 followed by a 3 day incubation in the presence of a perturbation matrix composed of the compounds indicated in the different panels. This was performed 4 separate times (once for each of the 4 panels). These HD-DoE experiments were then analyzed using MODDE software for the maximal induction of Insulin. The predicted results are shown.
(§5) FIGS. 22-25. Dynamic profiling of endocrine sub-type regulation. One of the HD-DoE experiments shown in Example 19 was analyzed using MODDE software and dynamic profiling of the endocrine products GCG, SST and INS are shown.
To define factors contributing to the activation of INS, a series of HD-DoE perturbations were performed using factors chosen to target different aspects of beta cell biology.
To define factors contributing to the activation of INS, a series HD-DoE perturbations were performed using factors chosen to target different aspects of beta cell biology.

PDX1 = experiment: HD-DoE perturbation matrix on DFE culture, modelling for maximal PDX1 induction
Excerpt: FIG. 11 Modelling for maximal PDX1 induction. Cultures of the iPSC cell line Cr01 was differentiated to a DFE state and then subjected to an HD-DoE perturbation matrix composed of the compounds indicated in the figure. MODDE software was used to predict the optimal condition for maximizing PDX1 activation. Predicted factor additives for this optimization and the relative expression under these conditions for the genes measured are shown.
FIG. 12 Coefficient plots show main effectors for pancreatic progenitor generation from a DFE precursor. Coefficients for the HD-DoE design shown in Example 9 are shown for PDX1 and PTF1A. The co-expression of these two genes is indicative of a pancreatic field.
To determine the best way for inducing a pancreatic fate from a DFE progenitor, a subsequent HD-DoE analysis was performed. Exposing a DFE culture to a perturbation matrix composed of all previously identified effectors shown to have a positive effect on PDX1 activation was used to define optimal conditions for PDX1 induction.

INS (beta cell marker) = experiment: HD-DoE on DFE culture, dynamic profiling of endocrine sub-type markers: INS; conditions: PDX1 optimizer, dynamic profiling FIG. 14
Excerpt: FIG. 14 Dynamic profiling exploring endocrine cell sub-types. IPSC cultures were differentiated to DFE cultures and then subjected a HD-DoE matrix as outlined in Example 10. MODDE software was used to display the dynamic profiles of GCG, INS and SST, which provide a representable characterization of the different pancreatic endocrine subtypes corresponding to alpha, beta, and delta cells, respectively.

[3] = tested on: GCG, SST, PDX1, PAX4, MAFA and NKX2.2; experiment: HD-DoE stage 3 screening, heat map and dynamic profiling of endocrine and beta cell genes; conditions: heat maps FIG. 19 and FIG. 21
Excerpt: FIG. 19 Heat map showing descending factor contributions for the induction of INS. The three HD-DoE experiments shown in Example 17 were used for modeling the maximal expression of several other genes, including GCG, SST, PDX1, PAX4, MAFA and NKX2.2, which are indicative of endocrine cell types with a focus on pancreatic beta cells as indicated at the top of the heat map. The relative factor contributions for the activation of these different genes were then used to generate a secondary heat map representative of the gene induction logic and then ranked according to the compound's ability to induce INS. Dark blue colors indicate a high inductive capacity, while dark red colors indicative of a highly repressive capacity for activation of the genes are shown.
FIG. 21 Heat map showing descending factor contributions for the induction of INS. The four HD-DoE experiments shown in Example 19 were used for modeling the maximal expression of several other genes. These genes were GCG, SST, PDX1, PAX4, MAFA and NKX2.2. These genes are all indicative of endocrine cell types with a focus on the beta cell as indicated at the top of the heatmap. The relative factor contribution for the activation of these different genes were then used to generate a secondary heat map representative of these genes induction logic and then ranked order according to the compounds ability to induce INS. Dark blue indicates high inductive capacity, while dark red is indicative of a highly repressive effect for the activation of the genes shown.
as §5
To ascertain which factors could potentially favor the beta cell over other endocrine cell types, optimizers for markers of the other endocrine cell types and beta cell specific markers were compared. The relative factor contribution from the different optimizers were compared.
Optimizers for the main pancreatic endocrine hormones and beta cell-specific transcription factors were generated to compare their contribution factors for this series of HD-DoE. Compounds that could selectively favor the differentiation of the beta cell over that of the alpha and delta cells were identified in this manner.

de novo beta cells = experiment: Immunohistochemical validation of de novo beta cells, day 16 culture (PDX1, C-peptide); conditions: added to stage 3 media, FIG. 26
Method: FIG. 26 Immunohistochemical validation of the generation of the de novo beta cells. Cultures of the iPSC cell line CR01 was differentiated to a DFE state for 3 days. These cultures were then incubated in the presence of stage 2 media for an additional 3 days. These cultures were then incubated for an additional 10 days in the presence of quercetin, GSI-XX and A8301. The cultures were then fixed using formalin and stained for antibodies that recognize the proteins PDX1 and CPEP.
C-peptide staining was performed to distinguish between de novo generation of beta cells and the possible absorption of insulin from the culture media.

[4] = tested on: iPSC derivatives (insulin secreting cells); experiment: GSIS assay of bioreactor produced iPSC derivatives with cAMP agonists; conditions: FIG. 39
Method: FIG. 39. Functionality of bioreactor produced insulin secreting cells occurs through cAMP agonism.
A glucose stimulated insulin secretion assay was performed to evaluate the functional maturity of the de novo beta cells generated. Assay samples had growth media removed and were washed once with PBS to remove any trace of media that may have been previously conditioned with secreted C-PEP. All samples were then incubated in the presence of basal media at 37 degrees Celsius for 15 minutes. Basal media consisted of RPMI containing 3 mM glucose. This media was then changed to either media supplemented with 17.5 mM glucose or 30 mM KCl and incubated for an additional 15 minutes.
Fully mature beta cells respond to incretins such as GLP1 through a cAMP mediated response. The iPSC derivatives are non-responsive to both GLP1 or a commonly used agonist of the GLP1 pathway EX4. It was shown that the receptor for these incretins (GLPR1) had very low expression in the iPSC-derivatives (FIG. 40). The rate of insulin secretion was also directly linked to the rate of mitochondrial respiration, as fully mature beta cells lack LDHA expression, making them only capable of metabolizing glucose through mitochondria respiration.

**Q.** Which results are given for `Cc1cccc(-c2nn(C(=S)Nc3ccccc3)cc2-c2ccnc3ccccc23)n1` [A8301]?
**A.** correlation with HNF1b activation (HNF1b; iPSC line CR01, HD-DoE, FIG. 2): negative correlation; factor contribution, optimization of HNF1b (HNF1b; iPSC line CR01, HD-DoE, FIG. 2): 3.02; correlation with FOXA2 activation (FOXA2 [1]; iPSC line CR01, HD-DoE, FIG. 3): positive correlation; factor contribution, optimization of FOXA2 (FOXA2 [1]; iPSC line CR01, HD-DoE, FIG. 3): 17.72; FOXA2 activation (immunohistochemical analysis) (FOXA2 [2]): increased FOXA2 activation over RA and LDN alone; effect on INS induction (INS; heat map FIG. 21, dynamic profiling FIGS. 22-25): positive effect on INS induction, though with far less contribution

**Q.** Which “effect on HNF1b expression” value (HNF1b; dynamic profiling, FIG. 5) does the source give for `c1ccc2c(-c3cnn4cc(-c5ccc(N6CCNCC6)cc5)cnc34)ccnc2c1` [LDN193189] here?
**A.** crucial

**Q.** And the “factor contribution, optimization of HNF1b” value (HNF1b; iPSC line CR01, HD-DoE, FIG. 2)?
**A.** 31.26

**Q.** And the “effect on FOXA2 expression” value (FOXA2 [1]; dynamic profiling, FIG. 5)?
**A.** crucial

**Q.** And the “factor contribution, optimization of FOXA2” value (FOXA2 [1]; iPSC line CR01, HD-DoE, FIG. 3)?
**A.** 31.11

**Q.** `O=C(NOC[C@H](O)CO)c1ccc(F)c(F)c1Nc1ccc(I)cc1F` [PD0325901] was tested. Which “factor contribution, optimization of HNF1b” value (HNF1b; iPSC line CR01, HD-DoE, FIG. 2) did it give?
**A.** 15.01

**Q.** What about the “factor contribution, optimization of FOXA2” value (FOXA2 [1]; iPSC line CR01, HD-DoE, FIG. 3) of the same compound?
**A.** 29.01

**Q.** And the “FOXA2 activation (immunohistochemical analysis)” value (FOXA2 [2])?
**A.** increased FOXA2 activation over RA and LDN alone

**Q.** And the “activation of the pancreatic field (PTF1A and PDX1), coefficient plots” value (PDX1; from DFE, FIG. 12)?
**A.** most critical to control

**Q.** How did the “factor contribution, PDX1 activation” value (PDX1; DFE culture, HD-DoE, FIG. 11) turn out when `Cc1c(C)c(NCC(=O)N(C)C2CCN(Cc3ccc(C(N)=O)cc3)CC2)c(C)c(C)c1N` [SUN11602] was run?
**A.** 4.7

**Q.** What about the “effect on INS activation” value (INS (beta cell marker)) of the same compound?
**A.** slightly negative effect

**Q.** Which results are given for `O=c1c(O)c(-c2ccc(O)c(O)c2)oc2cc(O)cc(O)c12` [quercetin]?
**A.** contribution factor, activation of INS (INS; Example 17, three HD-DoE panels, FIG. 18): 15.6; effect on beta cell specific transcription factors / all genes optimized [3]: beneficial for all genes optimized; endocrine conversion, de novo beta cell generation (immunohistochemical analysis) (de novo beta cells): increased overall endocrine conversion

**Q.** “GLP1: incretin, cAMP agonist (HAEGTFTSDVSSYLEGQAAKEFIAWLVKGR; ends and bridges not checked; UniProt P01275 98-127, looked up)” was tested. Which “increase in insulin secretion in GSIS assay” value [4] did it give?
**A.** did not occur
